Read-outs that look alike come from different tables or passages of the source. Starred links: 1 amine or outer side, 2 acyl side, 3 side chain; linkers in the order of their positions; H or OH if unused. Positions of bridges follow the written chain, without caps; N, C: chain ends. Non-standard residues stand in square brackets, D forms with d. Residues, ends and D or L forms follow the SMILES beside them. *: point of attachment. NH(1-deoxy-D-glucityl) = OC[C@@H](O)[C@@H](O)[C@H](O)[C@@H](O)CN*; DOTA = O=C(O)CN1CCN(CC(=O)O)CCN(CC(=O)*)CCN(CC(=O)O)CC1; Phe(3,4-Cl2) = N[C@@H](Cc1ccc(Cl)c(Cl)c1)C(=O)O; mXylylene = c1cc(C[*:1])cc(C[*:2])c1; Trx = NC[C@H]1CC[C@H](C(=O)O)CC1; X2 = O=C(CN1CCC(N[*:1])CC1)[*:2]; tBuAla = CC(C)(C)C[C@H](N)C(=O)O; X1 = O=C(CN1CCN([*:1])CC1)[*:2]; Dap = NC[C@H](N)C(=O)O; Bn = c1ccc(C*)cc1
Tests used:
[1] = target: T1, CAIX-expressing human HT-29 colorectal cancer cells (Homo sapiens, UniProt Q16790); test: FACS binding assay (IC50 determination, competition with tracer 3BP-2776 or 3BP-4149); settings: 4° C., 1 hour, read-out: pIC50 category (activity) (converted)
T1 construct: CAIX-expressing human HT-29 colorectal cancer cells; host or cells: HT-29 human colorectal cancer cells
Procedure, shortened: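 HT-29 cells in FACS buffer (PBS, 1% FCS) at 500.000 cells/ml were exposed to compounds competing with a labelled tracer, with biotinylated compounds detected by 1 μg/mL APC-streptavidin for 30 min on ice. APC/Cy5 median fluorescence was read by flow cytometry and IC50 derived by 4PL fit.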

[2] = target: T2, human carbonic anhydrase IX (hCAIX-Fc) (Homo sapiens, UniProt Q16790); test: Surface plasmon resonance assay with hCAIX-Fc; assay type: binding; settings: 25° C.; for t1/2 category (activity): SPR dissociation half-life, hCAIX-Fc; for Kd: SPR, hCAIX-Fc captured, read-out: pKD category (activity) (converted)
T2 construct: purchased SinoBliological (Sino Biological) 10107-H02H

[3] = target: T3, NEP (Homo sapiens, UniProt P08473); test: Proteolytic stability assay against NEP; assay type: in vitro ADME; settings: human, recombinant soluble human NEP, 100 ng/mL NEP, 10 μM compound, 37°C, read-out: % intact compound remaining after 24 h incubation
T3 construct: Recombinant soluble human NEP; purchased BioTechne, Wiesbaden, Germany
T3 sequence (P08473 52-750 limits assumed): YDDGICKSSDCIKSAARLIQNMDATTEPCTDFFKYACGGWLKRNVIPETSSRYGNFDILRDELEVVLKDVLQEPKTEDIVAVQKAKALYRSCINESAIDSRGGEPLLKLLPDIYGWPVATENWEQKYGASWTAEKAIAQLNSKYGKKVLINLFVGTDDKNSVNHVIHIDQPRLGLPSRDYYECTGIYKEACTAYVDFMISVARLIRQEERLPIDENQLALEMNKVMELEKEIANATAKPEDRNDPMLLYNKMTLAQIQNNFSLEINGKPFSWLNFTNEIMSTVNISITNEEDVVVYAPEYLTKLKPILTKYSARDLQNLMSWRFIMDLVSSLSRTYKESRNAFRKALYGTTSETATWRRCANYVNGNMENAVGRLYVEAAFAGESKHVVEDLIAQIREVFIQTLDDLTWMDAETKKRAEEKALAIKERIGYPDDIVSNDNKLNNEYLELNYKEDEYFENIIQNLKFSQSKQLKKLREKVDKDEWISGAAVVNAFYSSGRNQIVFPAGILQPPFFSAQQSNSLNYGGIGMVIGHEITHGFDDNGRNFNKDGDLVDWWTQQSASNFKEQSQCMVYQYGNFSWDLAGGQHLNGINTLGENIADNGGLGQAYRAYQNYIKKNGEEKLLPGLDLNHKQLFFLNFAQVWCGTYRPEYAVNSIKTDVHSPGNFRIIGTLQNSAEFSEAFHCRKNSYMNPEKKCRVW
Protocol: To assess the stability of compounds against NEP, the compounds were subjected to an in vitro assay based on the protocol described by Edelson et al. (Edelson et al., Pulmonary pharmacology & therapeutics, 2013, 26, 229-238).
Recombinant soluble human NEP (BioTechne, Wiesbaden, Germany) at a concentration of 100 ng/mL was mixed with the compound (10 μM) and a stable internal standard (10 μM) and incubated at 37° C. After several time points, samples were taken and analyzed with LC-MS.
The activity of NEP was examined using a commercially available chromogenic substrate of NEP.

[4] = Plasma stability assay, mouse plasma; settings: mouse plasma, 37°C, 24 h
[5] = FACS binding assay, HT-29 cells, competition with tracer 3BP-2776 (10 nM, biotin-labeled)

Structure (SMILES) | IC50 ([1]; FACS competition on HT-29 cells, Tracer ID 3BP-2776 (10 nM, biotin-labeled)) [nM] | t1/2 category (activity) [2] | Kd [2] [nM] | remaining at 24 h, 10 μM [3] [%] | IC50 [1, 5] [nM] | % intact compound remaining (incubation time) [4] [%] | IC50 ([1]; FACS binding assay, HT-29 cells, competition with tracer 3BP-4149 (3 nM, Cy5-labeled)) [nM]
CC(=O)N[C@H](C(=O)N[C@@H](Cc1ccc(O)cc1)C(=O)N[C@H]1CSCc2cccc(c2)CSC[C@@H](C(N)=O)NC(=O)[C@H](C)NC(=O)[C@H](Cc2c[nH]c3ccccc23)NC(=O)[C@H]([C@@H](C)O)NC(=O)[C@H](CC(C)C)NC(=O)[C@H](Cc2c[nH]c3ccccc23)NC(=O)[C@H](CC(=O)O)NC(=O)[C@H]2CCCN2C(=O)[C@H](CCC(=O)O)NC1=O)C(C)C [3BP-3282] (Ac-VYCE[dP]DWLTWAC-NH2; linker 3-12 via mXylylene) | < 10 | A (t1/2>15.0 minutes) | < 10 | > 95 |  |  | 
CC(C)C[C@@H]1NC(=O)[C@H](Cc2c[nH]c3ccccc23)NC(=O)[C@H](CC(=O)O)NC(=O)[C@H]2CCCN2C(=O)[C@H](CCC(=O)O)NC(=O)[C@@H]2CSCc3cccc(c3)CSC[C@@H](C(N)=O)NC(=O)[C@H](CNC(=O)C[C@H](NC(=O)CN3CCN(CC(=O)O)CCN(CC(=O)O)CCN(CC(=O)O)CC3)C(=O)N2)NC(=O)[C@H](Cc2c[nH]c3ccccc23)NC(=O)[C@H]([C@@H](C)O)NC1=O [3BP-4253] ({DOTA}-DCE[dP]DWLTW[Dap]C-NH2; lactam 1-10; linker 2-11 via mXylylene) |  | B (t1/2 between 5.1 and 15.0 minutes) | < 10 |  | < 10 | >95 | 
CC(C)C[C@@H]1NC(=O)[C@H](Cc2c[nH]c3ccccc23)NC(=O)[C@H](CC(=O)O)NC(=O)[C@H]2CCCN2C(=O)[C@H](CCC(=O)O)NC(=O)[C@@H]2CSCc3cccc(c3)CSC[C@@H](C(N)=O)NC(=O)[C@H](CNC(=O)C[C@H](NC(=O)CN3CCN(C(=O)CN4CCN(CC(=O)O)CCN(CC(=O)O)CCN(CC(=O)O)CC4)CC3)C(=O)N2)NC(=O)[C@H](Cc2c[nH]c3ccccc23)NC(=O)[C@H]([C@@H](C)O)NC1=O [3BP-4255] ({DOTA}-[X1]DCE[dP]DWLTW[Dap]C-NH2; lactam 2-11; linker 3-12 via mXylylene) |  | D (t1/2≤2.0 minutes) | < 10 |  | < 10 | 81 | 
CC(C)C[C@@H]1NC(=O)[C@H](Cc2c[nH]c3ccccc23)NC(=O)[C@H](CC(=O)O)NC(=O)[C@H]2CCCN2C(=O)[C@H](CCC(=O)O)NC(=O)[C@@H]2CSCc3cccc(c3)CSC[C@@H](C(N)=O)NC(=O)[C@H](CNC(=O)C[C@H](NC(=O)[C@H](CO)NC(=O)CN3CCN(CC(=O)O)CCN(CC(=O)O)CCN(CC(=O)O)CC3)C(=O)N2)NC(=O)[C@H](Cc2c[nH]c3ccccc23)NC(=O)[C@H]([C@@H](C)O)NC1=O [3BP-4257] ({DOTA}-SDCE[dP]DWLTW[Dap]C-NH2; lactam 2-11; linker 3-12 via mXylylene) |  | C (t1/2 between 2.1 and 5.0 minutes) | < 10 |  | < 10 | 94 | 
CC(C)C[C@@H]1NC(=O)[C@H](Cc2c[nH]c3ccccc23)NC(=O)[C@H](CC(=O)O)NC(=O)[C@H]2CCCN2C(=O)[C@H](CCC(=O)O)NC(=O)[C@@H]2CSCc3cccc(c3)CSC[C@@H](C(N)=O)NC(=O)[C@H](CNC(=O)C[C@H](NC(=O)[C@H]3CC[C@H](CNC(=O)CN4CCN(CC(=O)O)CCN(CC(=O)O)CCN(CC(=O)O)CC4)CC3)C(=O)N2)NC(=O)[C@H](Cc2c[nH]c3ccccc23)NC(=O)[C@H]([C@@H](C)O)NC1=O [3BP-4258] ({DOTA-Trx}-DCE[dP]DWLTW[Dap]C-NH2; lactam 1-10; linker 2-11 via mXylylene) |  | C (t1/2 between 2.1 and 5.0 minutes) | < 10 |  | < 10 | 93 | 

Results, then the compound that gave them:

IC50 ([1]; FACS competition on HT-29 cells, Tracer ID 3BP-2776 (10 nM, biotin-labeled)) [nM] | t1/2 category (activity) [2] | Kd [2] [nM] | remaining at 24 h, 10 μM [3] [%] | IC50 [1, 5] [nM] | % intact compound remaining (incubation time) [4] [%] | IC50 ([1]; FACS binding assay, HT-29 cells, competition with tracer 3BP-4149 (3 nM, Cy5-labeled)) [nM] | Structure (SMILES)
 | A (t1/2>15.0 minutes) | < 10 |  | < 10 | 81 |  | CC(C)C[C@@H]1NC(=O)[C@H](Cc2c[nH]c3ccccc23)NC(=O)[C@H](CC(N)=O)NC(=O)[C@H]2CCCN2C(=O)[C@H](CCC(=O)O)NC(=O)[C@@H](NC(=O)[C@H](Cc2ccc(O)cc2)NC(=O)[C@@H](NC(=O)CN2CCC(NC(=O)CN3CCN(CC(=O)O)CCN(CC(=O)O)CCN(CC(=O)O)CC3)CC2)C(C)C)CSCc2cccc(c2)CSC[C@@H](C(N)=O)NC(=O)[C@H](CO)NC(=O)[C@H](Cc2c[nH]c3ccccc23)NC(=O)[C@H]([C@@H](C)O)NC1=O [3BP-4103] ({DOTA}-[X2]VYCE[dP]NWLTWSC-NH2; linker 4-13 via mXylylene)
 | B (t1/2 between 5.1 and 15.0 minutes) | < 10 |  | < 10 | >95 |  | CC(C)C[C@@H]1NC(=O)[C@H](Cc2c[nH]c3ccccc23)NC(=O)[C@H](CC(=O)O)NC(=O)[C@H]2CCCN2C(=O)[C@H](CCC(=O)O)NC(=O)[C@@H](NC(=O)[C@H](CCC(=O)NC[C@H](O)[C@@H](O)[C@H](O)[C@H](O)CO)NC(=O)[C@@H](NC(=O)CN2CCC(NC(=O)CN3CCN(CC(=O)O)CCN(CC(=O)O)CCN(CC(=O)O)CC3)CC2)C(C)C)CSCc2cccc(c2)CSC[C@@H](C(N)=O)NC(=O)[C@H](CO)NC(=O)[C@H](Cc2c[nH]c3ccccc23)NC(=O)[C@H]([C@@H](C)O)NC1=O [3BP-4112] ({DOTA}-[X2]VE(NH(1-deoxy-D-glucityl))CE[dP]DWLTWSC-NH2; linker 4-13 via mXylylene)
 | A (t1/2>15.0 minutes) | < 10 |  | < 10 | 87 |  | CC(C)C[C@@H]1NC(=O)[C@H](Cc2c[nH]c3ccccc23)NC(=O)[C@H](CSCc2ccccc2)NC(=O)[C@H]2CCCN2C(=O)[C@H](CCC(=O)O)NC(=O)[C@@H](NC(=O)[C@H](Cc2ccc(O)cc2)NC(=O)[C@@H](NC(=O)CN2CCC(NC(=O)CN3CCN(CC(=O)O)CCN(CC(=O)O)CCN(CC(=O)O)CC3)CC2)C(C)C)CSCc2cccc(c2)CSC[C@@H](C(N)=O)NC(=O)[C@H](CO)NC(=O)[C@H](Cc2c[nH]c3ccccc23)NC(=O)[C@H]([C@@H](C)O)NC1=O [3BP-4128] ({DOTA}-[X2]VYCE[dP]C(Bn)WLTWSC-NH2; linker 4-13 via mXylylene)
 | B (t1/2 between 5.1 and 15.0 minutes) | < 10 |  | < 10 | >95 |  | CC(C)C[C@@H]1NC(=O)[C@H](Cc2ccc(Cl)c(Cl)c2)NC(=O)[C@H](CC(=O)O)NC(=O)[C@H]2CCCN2C(=O)[C@H](CCC(=O)O)NC(=O)[C@@H](NC(=O)[C@H](Cc2ccc(O)cc2)NC(=O)[C@@H](NC(=O)CN2CCC(NC(=O)CN3CCN(CC(=O)O)CCN(CC(=O)O)CCN(CC(=O)O)CC3)CC2)C(C)C)CSCc2cccc(c2)CSC[C@@H](C(N)=O)NC(=O)[C@H](CO)NC(=O)[C@H](Cc2c[nH]c3ccccc23)NC(=O)[C@H]([C@@H](C)O)NC1=O [3BP-4133] ({DOTA}-[X2]VYCE[dP]D[Phe(3,4-Cl2)]LTWSC-NH2; linker 4-13 via mXylylene)
 | A (t1/2>15.0 minutes) | < 10 |  | < 10 | 91 |  | CC(C)[C@H](NC(=O)CN1CCC(NC(=O)CN2CCN(CC(=O)O)CCN(CC(=O)O)CCN(CC(=O)O)CC2)CC1)C(=O)N[C@@H](Cc1ccc(O)cc1)C(=O)N[C@H]1CSCc2cccc(c2)CSC[C@@H](C(N)=O)NC(=O)[C@H](CO)NC(=O)[C@H](Cc2c[nH]c3ccccc23)NC(=O)[C@H]([C@@H](C)O)NC(=O)[C@H](CC(C)(C)C)NC(=O)[C@H](Cc2c[nH]c3ccccc23)NC(=O)[C@H](CC(=O)O)NC(=O)[C@H]2CCCN2C(=O)[C@H](CCC(=O)O)NC1=O [3BP-4142] ({DOTA}-[X2]VYCE[dP]DW[tBuAla]TWSC-NH2; linker 4-13 via mXylylene)
 | A (t1/2>15.0 minutes) | < 10 |  |  | >95 | < 10 | CC(C)C[C@@H]1NC(=O)[C@H](Cc2c[nH]c3ccccc23)NC(=O)[C@H](CC(=O)O)NC(=O)[C@H]2CCCN2C(=O)[C@H](CCC(=O)O)NC(=O)[C@@H]2CSCc3cccc(c3)CSC[C@@H](C(N)=O)NC(=O)[C@H](CNC(=O)C[C@H](NC(=O)[C@@H](NC(=O)CN3CCN(CC(=O)O)CCN(CC(=O)O)CCN(CC(=O)O)CC3)C(C)C)C(=O)N2)NC(=O)[C@H](Cc2c[nH]c3ccccc23)NC(=O)[C@H]([C@@H](C)O)NC1=O [3BP-4264] ({DOTA}-VDCE[dP]DWLTW[Dap]C-NH2; lactam 2-11; linker 3-12 via mXylylene)
